According to patent US8192962B2, “Processes for detecting toxic substances” (Daikin Industries, Ltd., priority 2001, dated 2012):

Test system: Unknown protein yeast genes
Assay: DNA chip mRNA expression in yeast, unknown protein yeast genes (Table 1)
Format: cell-based, Saccharomyces cerevisiae S288C
How it was run: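 S. cerevisiae S288C grown at 25° C. in YPD to log phase, then exposed 2 h to a toxicant at a growth-inhibiting, non-lethal concentration; untreated cells as control. Poly(A) mRNA reverse-transcribed with Cy3-dUTP or Cy5-dUTP, hybridized >12 h at 65° C. to whole-genome yeast DNA chip; value = fluorescence ratio treated/untreated.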

CCCCC[C@H](O)CC(=O)CCc1ccc(O)c(OC)c1 [(13), gingerol]
The level of expressed mRNA in the presence of chemical substance/The level of expressed mRNA in the absence of chemical substance (yeast gene YLR415C): 1.0
The level of expressed mRNA in the presence of chemical substance/The level of expressed mRNA in the absence of chemical substance (yeast gene YLR421C, incubated two hours with substance): 1.6
The level of expressed mRNA in the presence of chemical substance/The level of expressed mRNA in the absence of chemical substance (yeast gene YLR427W): 2.5
The level of expressed mRNA in the presence of chemical substance/The level of expressed mRNA in the absence of chemical substance (yeast gene YLR460C): 0.7
The level of expressed mRNA in the presence of chemical substance/The level of expressed mRNA in the absence of chemical substance (yeast gene YML013W): 1.2
The level of expressed mRNA in the presence of chemical substance/The level of expressed mRNA in the absence of chemical substance (yeast gene YML029W): 2.0
The level of expressed mRNA in the presence of chemical substance/The level of expressed mRNA in the absence of chemical substance (yeast gene YML041C): 1.2
The level of expressed mRNA in the presence of chemical substance/The level of expressed mRNA in the absence of chemical substance (yeast gene YML079W): 1.6
The level of expressed mRNA in the presence of chemical substance/The level of expressed mRNA in the absence of chemical substance (yeast gene YMR068W): 1.4
The level of expressed mRNA in the presence of chemical substance/The level of expressed mRNA in the absence of chemical substance (yeast gene YMR071C): 1.3
The level of expressed mRNA in the presence of chemical substance/The level of expressed mRNA in the absence of chemical substance (yeast gene YMR102C, incubated two hours with chemical substance): 4.4
The level of expressed mRNA in the presence of chemical substance/The level of expressed mRNA in the absence of chemical substance (yeast gene YMR160W): 1.6
The level of expressed mRNA in the presence of chemical substance/The level of expressed mRNA in the absence of chemical substance (yeast gene YMR258C, incubated two hours with substance): 1.6
The level of expressed mRNA in the presence of chemical substance/The level of expressed mRNA in the absence of chemical substance (yeast gene YMR315W): 2.5
The level of expressed mRNA in the presence of chemical substance/The level of expressed mRNA in the absence of chemical substance (yeast gene YNL026W): 1.7
The level of expressed mRNA in the presence of chemical substance/The level of expressed mRNA in the absence of chemical substance (yeast gene YNL058C): 0.6
The level of expressed mRNA in the presence of chemical substance/The level of expressed mRNA in the absence of chemical substance (yeast gene YNL063W): 1.5
The level of expressed mRNA in the presence of chemical substance/The level of expressed mRNA in the absence of chemical substance (yeast gene YNL176C): 0.6
The level of expressed mRNA in the presence of chemical substance/The level of expressed mRNA in the absence of chemical substance (yeast gene YNL194C): 1.5
The level of expressed mRNA in the presence of chemical substance/The level of expressed mRNA in the absence of chemical substance (yeast gene YNL200C): 1.1
The level of expressed mRNA in the presence of chemical substance/The level of expressed mRNA in the absence of chemical substance (yeast gene YNL253W): 1.1
The level of expressed mRNA in the presence of chemical substance/The level of expressed mRNA in the absence of chemical substance (yeast gene YNL276C): 1.5
The level of expressed mRNA in the presence of chemical substance/The level of expressed mRNA in the absence of chemical substance (yeast gene YNL300W, incubated two hours with chemical substance): 0.7
The level of expressed mRNA in the presence of chemical substance/The level of expressed mRNA in the absence of chemical substance (yeast gene YNR051C): 2.1
The level of expressed mRNA in the presence of chemical substance/The level of expressed mRNA in the absence of chemical substance (yeast gene YOL026C): 1.2
The level of expressed mRNA in the presence of chemical substance/The level of expressed mRNA in the absence of chemical substance (yeast gene YOL031C): 2.4
The level of expressed mRNA in the presence of chemical substance/The level of expressed mRNA in the absence of chemical substance (yeast gene YOL084W, incubated two hours with substance): 6.4
The level of expressed mRNA in the presence of chemical substance/The level of expressed mRNA in the absence of chemical substance (yeast gene YOL101C): 0.2
The level of expressed mRNA in the presence of chemical substance/The level of expressed mRNA in the absence of chemical substance (yeast gene YOR022C): 1.7
The level of expressed mRNA in the presence of chemical substance/The level of expressed mRNA in the absence of chemical substance (yeast gene YOR087W): 1.2
The level of expressed mRNA in the presence of chemical substance/The level of expressed mRNA in the absence of chemical substance (yeast gene YOR138C): 1.8
The level of expressed mRNA in the presence of chemical substance/The level of expressed mRNA in the absence of chemical substance (yeast gene YOR253W): 0.5
The level of expressed mRNA in the presence of chemical substance/The level of expressed mRNA in the absence of chemical substance (yeast gene YOR267C): 1.4
The level of expressed mRNA in the presence of chemical substance/The level of expressed mRNA in the absence of chemical substance (yeast gene YOR338W): 1.4
The level of expressed mRNA in the presence of chemical substance/The level of expressed mRNA in the absence of chemical substance (yeast gene YOR391C): 2.3
The level of expressed mRNA in the presence of chemical substance/The level of expressed mRNA in the absence of chemical substance (yeast gene YPL005W): 1.2
The level of expressed mRNA in the presence of chemical substance/The level of expressed mRNA in the absence of chemical substance (yeast gene YPL087W, incubated two hours with chemical substance): 4.4
The level of expressed mRNA in the presence of chemical substance/The level of expressed mRNA in the absence of chemical substance (yeast gene YPL150W): 2.1
The level of expressed mRNA in the presence of chemical substance/The level of expressed mRNA in the absence of chemical substance (yeast gene YPL152W): 1.4
The level of expressed mRNA in the presence of chemical substance/The level of expressed mRNA in the absence of chemical substance (yeast gene YPL168W): 1.0
The level of expressed mRNA in the presence of chemical substance/The level of expressed mRNA in the absence of chemical substance (yeast gene YPL180W): 1.5
The level of expressed mRNA in the presence of chemical substance/The level of expressed mRNA in the absence of chemical substance (yeast gene YPL188W): 0.9
The level of expressed mRNA in the presence of chemical substance/The level of expressed mRNA in the absence of chemical substance (yeast gene YPL221W): 1.0
The level of expressed mRNA in the presence of chemical substance/The level of expressed mRNA in the absence of chemical substance (yeast gene YPL225W): 0.8
The level of expressed mRNA in the presence of chemical substance/The level of expressed mRNA in the absence of chemical substance (yeast gene YPL280W): 2.4
The level of expressed mRNA in the presence of chemical substance/The level of expressed mRNA in the absence of chemical substance (yeast gene YPR049C): 1.6
The level of expressed mRNA in the presence of chemical substance/The level of expressed mRNA in the absence of chemical substance (yeast gene YPR146C): 1.3
The level of expressed mRNA in the presence of chemical substance/The level of expressed mRNA in the absence of chemical substance (yeast gene YPR148C): 1.2
The level of expressed mRNA in the presence of chemical substance/The level of expressed mRNA in the absence of chemical substance (yeast gene YPR158W, incubated two hours with substance): 1.6
The level of expressed mRNA in the presence of chemical substance/The level of expressed mRNA in the absence of chemical substance (yeast gene YPR172W): 1.3
